Source: US20130096100A1, “DI(ARYLAMINO)ARYL COMPOUND” (ASTELLAS PHARMA INC., priority 2007, published 2013)

Assays:
[1] = tested on: human non-small cell lung cancer cell line HCC827 cells (mutant EGFR protein-expressing cells); test: Inhibitory effect against anchorage-independent cell growth of HCC827 cells (Test Example 4); assay type: cell-based; conditions: 120 h, spheroid plate, 5 days, CellTiter-Glo
Procedure: (§1) In a 96-well spheroid plate (Sumilon Celltight Spheroid 96U; Sumitomo Bakelite Co., Ltd., Japan), human non-small cell lung cancer cell line NCI-H2228 cells were seeded at 2000 cells per well in RPMI1640 medium (Invitrogen) containing 10% fetal bovine serum. NCI-H2228 cells are those expressing another EML4-ALK fusion protein, which is different from the EML4-ALK fusion protein v1 because it is encoded by an EML4-ALK fusion polynucleotide whose fusion point on EML4 cDNA is different from that of the EML4-ALK fusion polynucleotide v1, but whose ALK region is the same as that of the EML4-ALK fusion polynucleotide v1. The above NCI-H2228 cells seeded in the plate were cultured overnight under 5% CO2 at 37° C., followed by addition of a test compound (final concentration: 10 μM to 1 nM). As a negative control, DMSO used as a solvent was added at the same concentration as the test compound. Then, the cells were cultured under 5% CO2 at 37° C. for 5 days. A cell counting reagent (CellTiter-Glo™ Luminescent Cell Viability Assay; Promega) was added and agitated for 20 minutes, followed by measurement with a luminometer (ML3000 microtiter plate luminometer; Dynatech Laboratories).
Evaluation of Inhibitory Effect Against Anchorage-Independent Cell Growth of Human Non-Small Cell Lung Cancer Cell Line HCC827 Cells (Mutant EGFR (with Partial Deletion of Exon 19 in EGFR) Protein-Expressing Cells, American Type Culture Collection)
Evaluation was performed in the same manner as shown in Test Example 3.

[2] = tested on: human non-small cell lung cancer cell line NCI-H2228 cells (EML4-ALK fusion protein-expressing cells); test: Inhibitory effect against anchorage-independent cell growth of NCI-H2228 cells (Test Example 3); assay type: cell-based; conditions: 120 h, spheroid plate, 5 days, CellTiter-Glo
Source text: Measurement for anchorage-independent cell growth (colony method, etc) has been known to be a system for investigating the anticancer action (pharmacological effect) of test compounds (Clinical Oncology, second edition, Cancer and Chemotherapy Publishers Inc.). In place of the colony method, there is a following method using spheroid plates for measuring the growth of non-attached cells.
as §1

[3] = target: T1, EML4-ALK fusion protein v1 (Homo sapiens, UniProt Q9UM73, D1529E/I1461V/K1491R); test: Inhibitory activity against the kinase activity of EML4-ALK fusion protein v1 (Test Example 1); assay type: biochemical; conditions: ATP 100 μM, reaction 1 hour, HTRF KinEASE-TK
T1 construct: FLAG (N); made in house
T1 sequence (Q9UM73 with tags, fused parts or gaps I1461V/K1491R/D1529E): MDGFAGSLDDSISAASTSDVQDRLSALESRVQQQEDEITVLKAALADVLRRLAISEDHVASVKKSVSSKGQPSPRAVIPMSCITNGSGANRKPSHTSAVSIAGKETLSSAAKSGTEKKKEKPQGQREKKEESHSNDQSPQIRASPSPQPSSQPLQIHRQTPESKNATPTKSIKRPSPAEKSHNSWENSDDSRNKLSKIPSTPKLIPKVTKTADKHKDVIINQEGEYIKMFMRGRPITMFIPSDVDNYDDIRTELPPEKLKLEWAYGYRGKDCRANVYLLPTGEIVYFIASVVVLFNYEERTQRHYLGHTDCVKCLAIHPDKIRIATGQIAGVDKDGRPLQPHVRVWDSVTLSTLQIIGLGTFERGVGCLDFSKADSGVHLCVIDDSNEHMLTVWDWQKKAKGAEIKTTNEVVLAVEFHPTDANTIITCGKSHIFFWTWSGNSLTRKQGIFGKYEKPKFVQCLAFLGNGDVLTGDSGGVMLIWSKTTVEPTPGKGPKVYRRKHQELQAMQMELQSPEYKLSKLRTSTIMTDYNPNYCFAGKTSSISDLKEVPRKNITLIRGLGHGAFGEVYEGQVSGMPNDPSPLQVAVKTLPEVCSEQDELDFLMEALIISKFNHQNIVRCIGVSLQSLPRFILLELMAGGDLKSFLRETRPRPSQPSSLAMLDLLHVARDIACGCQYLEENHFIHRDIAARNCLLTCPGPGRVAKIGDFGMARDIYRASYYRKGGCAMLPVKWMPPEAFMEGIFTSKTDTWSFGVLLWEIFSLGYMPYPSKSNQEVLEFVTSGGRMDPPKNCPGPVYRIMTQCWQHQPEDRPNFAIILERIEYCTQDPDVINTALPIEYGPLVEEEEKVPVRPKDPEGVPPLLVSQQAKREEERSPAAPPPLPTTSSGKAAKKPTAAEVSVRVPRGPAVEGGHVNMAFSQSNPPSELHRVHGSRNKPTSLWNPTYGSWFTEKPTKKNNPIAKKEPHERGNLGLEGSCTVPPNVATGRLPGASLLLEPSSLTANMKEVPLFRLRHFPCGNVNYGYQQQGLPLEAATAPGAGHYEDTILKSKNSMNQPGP
Procedure: EML4-ALK fusion protein v1 (purified from BA/F3 cells expressing EML4-ALK fusion protein v1) was investigated for its phosphorylation activity toward a peptide substrate by using a kinase activity detection kit (HTRF KinEASE-TK; Cisbio Inc.). […] The ATP concentration used was 100 μM. Another reaction solution was prepared to contain the enzyme protein but no test compound (in which the solvent DMSO alone was added at 0.4% in place of the test compound), followed by reaction in the same manner with or without ATP addition. […] The concentration causing 50% inhibition (IC50) was calculated for each test compound by the logistic regression method.
(§2) N-terminally FLAG-tagged EML4-ALK fusion protein v1 was inserted into a vector pMX-iresCD8 capable of co-expression of insert cDNA and cell surface antigen CD8 (J. Biol. Chem., 2001, vol. 276, p. 39012-39020) to create a vector FLAG-EML4-ALKv1/pMX-iresCD8 expressing both FLAG-EML4-ALKv1 and CD8. FLAG-EML4-ALKv1/pMX-iresCD8 was used to create a recombinant retrovirus in the same manner as described above and infected into mouse lymphoid cell line BA/F3 cells. Using a magnetic bead reagent for cell separation and a purification column (anti-CD8 monoclonal antibody immobilized on magnetic beads and a MiniMACS purification column; both are products of Miltenyi Biotec Inc.), cell surface CD8-expressing cells were purified conveniently. […] After washing 3 times with PBS, the cells were lysed in a lysis solution (50 mM Tris.HCl (pH 7.4), 150 mM NaCl, 1% Triton X100, 5 mM EDTA, 5 mM EGTA, 1 mM NaVO4, 1 mM DTT and protease inhibitor cocktail complete). The EML4-ALK fusion protein v1 present in the supernatant obtained after centrifugation was purified using ANTI-FLAG M2 Affinity Gel (SIGMA-ALDRICH Inc.) according to the method described in the product information document.
(§3) The EML4-ALK fusion protein v1 purified as above was investigated for its phosphorylation activity toward a peptide substrate using a kinase activity detection kit (HTRF KinEASE-TK; Cisbio Inc.). Using TK substrate 1, which was included in the kit, as the substrate, and after adding no ATP or 100 μM ATP, the mixtures were reacted at room temperature for 1 hour, and the count of HTRF was detected as recommended by the Kits manufacturer.

[4] = target: T1, EML4-ALK fusion protein v1; test: Inhibitory effect of compounds against the in vitro kinase activity of EML4-ALK fusion protein v1, IC50 (Test Example 14); assay type: biochemical; conditions: 8 concentrations 1000 nM to 0.3 nM
Procedure: In the same manner as shown in Test Example 12(3), compounds were investigated for their inhibitory effect against the in vitro kinase activity of EML4-ALK fusion protein v1 using the kinase activity detection kit mentioned above. Test compounds were each added to a reaction solution containing the EML4-ALK fusion protein v1 to give 8 final concentrations from 1000 nM to 0.3 nM, followed by addition of ATP. Another reaction solution was prepared to contain the EML4-ALK fusion protein v1 but no test compound (in which the solvent DMSO alone was added at 0.4% in place of the test compound), followed by reaction with or without ATP addition. The rest of the operations were carried out as described in Test Example 12(2). […] The concentration causing 50% inhibition (IC50) was calculated for each test compound by the logistic regression method.

[5] = Toxicity test in rats, 7-day repeated oral administration (Test Example 5); assay type: in vivo, SD rats; conditions: 7 days; for Dose: Bone marrow inhibition / Dose: Exacerbation of common symptoms / Non-toxic dose: oral; for Dose: Moribund condition: SD, rat, in vivo, po
Source text: Test compounds were each suspended in a 0.5% aqueous methylcellulose solution and repeatedly administered to SD rats (two females and four males in each group) by the oral route at each dose for 7 days.

MER = target: T2, MER (Homo sapiens, UniProt Q12866); test: Kinase inhibition profiling, MER (Test Example 6); assay type: biochemical; conditions: 100 nM; read-out: inhibitory activity against MER
T2 construct: purchased Carna Biosciences Inc., Japan (contract measurement)
T2 sequence (Q12866 21-999): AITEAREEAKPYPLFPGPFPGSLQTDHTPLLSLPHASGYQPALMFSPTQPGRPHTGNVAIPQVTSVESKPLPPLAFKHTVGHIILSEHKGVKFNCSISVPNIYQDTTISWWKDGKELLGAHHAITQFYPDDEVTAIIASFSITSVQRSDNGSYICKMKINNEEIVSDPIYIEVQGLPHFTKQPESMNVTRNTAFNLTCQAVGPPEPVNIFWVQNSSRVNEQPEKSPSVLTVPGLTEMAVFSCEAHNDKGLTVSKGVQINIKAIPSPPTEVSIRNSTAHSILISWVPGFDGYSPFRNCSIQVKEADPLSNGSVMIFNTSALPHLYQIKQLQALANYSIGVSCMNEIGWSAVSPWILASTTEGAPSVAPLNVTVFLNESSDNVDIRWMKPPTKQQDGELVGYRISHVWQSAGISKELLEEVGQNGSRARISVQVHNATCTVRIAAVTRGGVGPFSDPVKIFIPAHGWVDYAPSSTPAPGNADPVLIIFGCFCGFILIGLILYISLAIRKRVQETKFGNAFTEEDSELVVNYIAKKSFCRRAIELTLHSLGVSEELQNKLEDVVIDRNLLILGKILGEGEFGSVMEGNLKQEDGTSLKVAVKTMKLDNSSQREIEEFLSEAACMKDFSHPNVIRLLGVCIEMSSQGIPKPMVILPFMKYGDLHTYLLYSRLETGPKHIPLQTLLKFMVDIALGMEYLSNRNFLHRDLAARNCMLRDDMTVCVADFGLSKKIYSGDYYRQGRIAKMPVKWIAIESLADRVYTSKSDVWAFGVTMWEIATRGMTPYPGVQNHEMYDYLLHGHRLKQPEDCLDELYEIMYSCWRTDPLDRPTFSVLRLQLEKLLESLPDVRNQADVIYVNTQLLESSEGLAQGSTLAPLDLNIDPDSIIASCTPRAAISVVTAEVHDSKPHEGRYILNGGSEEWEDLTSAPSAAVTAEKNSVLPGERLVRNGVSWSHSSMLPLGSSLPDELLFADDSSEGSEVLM

[6] = tested on: HCC-827 cells (mutant EGFR protein-expressing cells); conditions: conditions of Non-patent Document 6; cited from earlier work
MNK1 = target: T3, MNK1 (Homo sapiens, UniProt Q9BUB5); test: Kinase inhibition profiling, MNK1 (Test Example 6); assay type: biochemical; conditions: 100 nM; read-out: inhibitory activity against MNK1
T3 construct: purchased Carna Biosciences Inc., Japan (contract measurement)
T3 sequence (Q9BUB5 whole entry): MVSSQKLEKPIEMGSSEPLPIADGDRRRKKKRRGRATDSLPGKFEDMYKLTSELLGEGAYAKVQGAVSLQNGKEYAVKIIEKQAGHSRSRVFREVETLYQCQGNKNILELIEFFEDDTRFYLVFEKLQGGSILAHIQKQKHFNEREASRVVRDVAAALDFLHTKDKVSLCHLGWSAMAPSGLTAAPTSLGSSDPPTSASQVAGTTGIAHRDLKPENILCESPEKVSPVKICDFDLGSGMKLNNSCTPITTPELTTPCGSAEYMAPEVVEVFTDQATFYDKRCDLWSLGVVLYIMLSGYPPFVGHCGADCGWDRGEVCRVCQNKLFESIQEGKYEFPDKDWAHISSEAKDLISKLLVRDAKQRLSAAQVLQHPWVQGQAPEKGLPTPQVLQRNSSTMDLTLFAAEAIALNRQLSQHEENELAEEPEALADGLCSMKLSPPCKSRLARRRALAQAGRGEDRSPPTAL

MUSK = target: T4, MUSK (Homo sapiens, UniProt O15146); test: Kinase inhibition profiling, MUSK (Test Example 6); assay type: biochemical; parameters: purchased Carna Biosciences Inc., Japan (contract measurement); conditions: 100 nM; read-out: inhibitory activity against MUSK
T4 sequence (O15146 24-869): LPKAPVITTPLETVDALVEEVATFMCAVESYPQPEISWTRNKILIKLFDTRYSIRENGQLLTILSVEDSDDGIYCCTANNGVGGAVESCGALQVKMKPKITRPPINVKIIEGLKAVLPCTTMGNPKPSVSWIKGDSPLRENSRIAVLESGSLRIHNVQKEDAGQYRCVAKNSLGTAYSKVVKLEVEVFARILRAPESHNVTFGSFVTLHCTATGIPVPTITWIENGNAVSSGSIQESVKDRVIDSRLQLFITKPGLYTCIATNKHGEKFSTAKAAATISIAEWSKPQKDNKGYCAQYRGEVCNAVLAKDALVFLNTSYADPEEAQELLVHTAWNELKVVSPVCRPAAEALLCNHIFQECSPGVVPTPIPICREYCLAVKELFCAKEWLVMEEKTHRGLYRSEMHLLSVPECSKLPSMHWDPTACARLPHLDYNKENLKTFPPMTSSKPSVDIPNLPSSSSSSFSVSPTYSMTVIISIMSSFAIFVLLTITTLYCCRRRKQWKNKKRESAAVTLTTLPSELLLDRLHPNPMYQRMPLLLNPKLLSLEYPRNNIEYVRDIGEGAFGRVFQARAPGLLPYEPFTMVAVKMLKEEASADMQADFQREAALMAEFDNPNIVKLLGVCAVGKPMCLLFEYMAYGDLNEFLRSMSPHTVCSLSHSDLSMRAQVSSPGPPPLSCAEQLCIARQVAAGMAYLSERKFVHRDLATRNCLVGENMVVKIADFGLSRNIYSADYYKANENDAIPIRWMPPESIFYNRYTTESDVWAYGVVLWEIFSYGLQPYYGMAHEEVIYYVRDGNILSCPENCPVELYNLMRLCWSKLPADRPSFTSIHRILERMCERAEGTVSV

88 types of kinases = test: Kinase inhibition profiling, 88 types of kinases (Test Example 6); assay type: biochemical; conditions: concentration of 100 nM
[7] = tested on: v1 expressing 3T3 cells (tumor); test: Antitumor effect on v1 expressing 3T3 cells inoculated in nude mice (Test Example 13); assay type: in vivo; conditions: once a day for 10 days, started 6 days after inoculation, BALB/c nude mice
Procedure: 3×10^6 cells of v1 expressing 3T3 cells suspended in PBS were inoculated subcutaneously by injection to the back of 5 weeks old male BALB/c nude mice (Charles River Japan, Inc.). […] Administrations were performed once a day for 14 days, and body weight and tumor size were measured every other day. Tumor volume was calculated using the following formula.
[Tumor volume (mm^3)]=[Tumor major axis (mm)]×[tumor minor axis (mm)]^2×0.5
The antitumor effect of compound D was investigated by the similar procedure with the following exceptions. The administration of the compound was started after 6 days of the inoculation and carried out once a day for 10 days.

[8] = target: T1, EML4-ALK fusion protein v1; test: Inhibitory effect of compounds against the in vitro kinase activity of EML4-ALK fusion protein v1, single concentration (Test Example 12(3)); assay type: biochemical; conditions: final concentration 10 nM
Source text: as §2, §3

| IC50 [3] [nM] | IC50 [4] [nM] | inhibition at 0.01 µM [8] [%] | Compound | IC50 [1] [nM] | IC50 [2] [nM] | Dose: Bone marrow inhibition ([5]; female SD rats (2 rats)) [mg/kg] | Dose: Exacerbation of common symptoms ([5]; female SD rats (2 rats)) [mg/kg] | Non-toxic dose ([5]; female SD rats (2 rats)) [mg/kg] | Dose: Moribund condition ([5]; female) [mg/kg] | Dose: Bone marrow inhibition ([5]; male SD rats (4 rats)) [mg/kg] | Dose: Exacerbation of common symptoms ([5]; male SD rats (4 rats)) [mg/kg] | Non-toxic dose ([5]; male SD rats (4 rats)) [mg/kg] | Dose: Moribund condition ([5]; male) | inhibition at 0.1 µM (MER) [%] | growth inhibitory activity, inhibition rate [6] [%] | inhibition at 0.1 µM (MNK1) [%] | inhibition at 0.1 µM (MUSK) [%] | number of types of kinases (of 88) with 50% or more inhibitory activity (88 types of kinases) | inhibition of the growth of v1 expressing 3T3 cells (tumor) [7] [%] |
| --- | --- | --- | --- | --- | --- | --- | --- | --- | --- | --- | --- | --- | --- | --- | --- | --- | --- | --- | --- |
| 42 | 42 | – | COc1cc(N2CCC(N3CCN(C)CC3)CC2)ccc1Nc1nc(Nc2ccccc2S(=O)(=O)C(C)C)c2ccccc2n1 [Example 1, N^4-[2-(isopropylsulfonyl)phenyl]-N^2-{2-methoxy-4-[4-(4-methylpiperazin-1-yl)piperidin-1-yl]phenyl}quinazoline-2,4-diamine] | 2510 | 473 | – | – | – | – | – | – | – | – | – | – | – | – | – | – |
| – | – | – | COc1cc(N2CCC(N3CCN(C)CC3)CC2)ccc1Nc1ncc(Cl)c(Nc2ccccc2S(=O)(=O)C(C)C)n1 [TAE684, 5-chloro-N^4-[2-(isopropylsulfonyl)phenyl]-N^2-{2-methoxy-4-[4-(4-methylpiperazin-1-yl)piperidin-1-yl]phenyl}pyrimidine-2,4-diamine, reference compound] | 301 | 8.5 | 10 | 30 | 3 | 100 | 10 | 100 | 3 | (>100) mg/kg | ≥ 90 | 7.5 | 4.8 | ≥ 90 | 29 types of kinases | – |
| – | – | 99 | CNS(=O)(=O)c1ccccc1Nc1nc(Nc2ccc(N3CCN(C)CC3)cc2OC)ncc1Br [Compound D, 2-[(5-bromo-2-{[2-methoxy-4-(4-methylpiperazin-1-yl)phenyl]amino}pyrimidin-4-yl)amino]-N-methylbenzenesulfonamide] | – | – | – | – | – | – | – | – | – | – | – | – | – | – | – | 101 |
